From patent US12188086B2, “Nucleotide analogues and use thereof for nucleic acid sequencing and analysis preliminary class” (The Trustees of Columbia University in the City of New York, priority 2018, dated 2025)
Each block holds one compound with its values, some of them ahead of it.

Experiments:
[1] = Sodium dithionite cleavage of azo linker on single base extended primer (MALDI-TOF MS); format: physicochemical
Protocol: The azo cleavage reaction was performed on single base extended primer (E8TT+3′-O-t-butyl-SS-dTMP-PEG4-Azo-Cy5, 6782.4 Da). A 1M stock solution of Na2S2O4 was prepared in 1×PBS buffer (pH 7.4). 1.25 μL Na2S2O4 solution was added to the extended primer solution (20 μL, 32 μM) along with 28.75 μL of 1×PBS buffer. […] Afterwards, reaction mixtures were purified with a ZipTip and concentrated using a Speed Vac. The size of the cleaved extended primer was characterized by MALDI-TOF MS as 6009.44 Da (calc'd: 6008.9 Da).
Single base extended primers (6084ExAA+3′-O-t-butyl-SS-dAMP-PEG4-Azo-Biotin, 7327.4 Da) was treated with 25 mM sodium dithionite in 1×PBS buffer. […] The azo cleaved product reflects a molecular weight of 6951.1 Da which agrees with the expected value of 6952.3 Da. […]

[2] = tested on: Therminator IX DNA polymerase; test: Single base extension reaction, checked by MALDI-TOF MS; format: biochemical; design: efficiency of primer strand extension: concentration or dose not given beside the values; details: for efficiency of primer strand extension: no primer peak is visible
Protocol: A single base DNA extension reaction (SBE) was performed with 3′-O-SS (DTM)-dTTP-PEG4-Azo-Cy5, using a primer (5′-[…]-3′ [SEQ ID 1]) and a synthetic DNA template (5′-[…]-3′ [SEQ ID 2]) based on a portion of exon 8 of the human p53 gene as follows. The bold letters in the template represent the extension position for the primers. 2 μL of 10× concentrated buffer, 1 μL of primer, E8TT (MW: 5163, 100 μM), 3 μL of Exon 8 template (20 μM), 1 μL of nucleotide (3′-O-t-butyl-SS-dTTP-PEG4-Azo-Cy5, 432 μM), 1 μL of Therminator IX DNA Polymerase, T9 (10 U/λ) and 12 μL of dH2O were combined in a total volume of 20 μL. The reaction consisted of 38 cycles at 65° C. for 30 seconds and 45° C. for 30 seconds. Single base extension was confirmed by MALDI-TOF MS as indicated by the major peak at 6791.8 Da (calc'd, 6782.4 Da) in the spectrum.
Synthesized 3′-O-t-butyl-SS-dATP-PEG4-Azo-Biotin was used to perform a single-base extension reaction. The primer E8AA-6084 (5′-[…]-3′ at 6084 Da), exon 8 template (see sequence above) and Therminator IX DNA polymerase (T9) were added along with the modified nucleotides. In the 3′-O-t-butyl-SS-dATP-PEG4-Azo-Biotin (A7) incorporation reaction, the primer was extended to 7327.4 Da (expected, 7326.3 Da). No primer peak was detected using MALDI TOF MS after 38 cycles of reaction.
Extension reactions consisted of 3 μl template (60 μM), 1 μl primer (100 μM), 2 μl of one of the above ddNTP analogues (100 μM), 2 μl 10× Thermo Pol Buffer, 1 μl Therminator IX DNA polymerase (10 unit/μl) and 11 μl water. Extension was performed in a thermal cycler and consisted of 1 min denaturation at 65° C., followed by 38 cycles of 30 sec at 65° C., 30 sec at 45° C. and 30 sec at 65° C., with a final 3 min extension at 72° C., and storage at 4° C. Desalting was carried out using Oligo Clean & Concentrator (Zymo Research) according to the manufacturer's instructions prior to checking results of polymerase reaction by MALDI-TOF-MS.

[3] = target: Thermo Sequenase (Thermus aquaticus, UniProt P19821, F272M/F667Y); details: read-out: concentration that produces the half maximum fluorescent intensity; 0.3 μM single fluorescein labeled self-primed template, 10 pH dCTP, ddCTP 0 to 10 μM
Sequence of Thermo Sequenase (P19821 272-832 F272M/F667Y): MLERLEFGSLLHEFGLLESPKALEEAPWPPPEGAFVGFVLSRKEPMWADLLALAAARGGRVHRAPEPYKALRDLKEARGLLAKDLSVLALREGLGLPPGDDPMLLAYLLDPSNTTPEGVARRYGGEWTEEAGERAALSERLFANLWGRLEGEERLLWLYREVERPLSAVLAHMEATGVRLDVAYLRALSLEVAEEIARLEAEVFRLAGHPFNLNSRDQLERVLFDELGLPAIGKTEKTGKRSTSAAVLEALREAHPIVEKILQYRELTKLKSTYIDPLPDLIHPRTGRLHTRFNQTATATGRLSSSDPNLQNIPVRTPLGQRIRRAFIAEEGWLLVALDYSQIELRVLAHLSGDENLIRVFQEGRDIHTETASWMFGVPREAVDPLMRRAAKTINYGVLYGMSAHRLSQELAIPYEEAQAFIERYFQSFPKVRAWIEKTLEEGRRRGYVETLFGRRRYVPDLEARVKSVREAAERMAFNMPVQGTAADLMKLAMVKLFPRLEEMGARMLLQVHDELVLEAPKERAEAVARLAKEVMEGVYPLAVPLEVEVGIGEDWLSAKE
Protocol: A. Varying concentrations of ddCTP (0 to 10 μM) were added to solutions containing Thermo Sequenase, 0.3 μM single fluorescein labeled self-primed template and 10 pH dCTP. […] B. The same experiments performed with the tagged ddCTP (0 to 5 μM) shown in FIG. 79 in the presence of the same template and 5 μM dCTP.
Extension reactions were prepared with the primer, Thermo Sequenase, dCTP and various dilutions of ddCTP or tagged ddCTP. First, a series of SBE reactions were carried out with final ddCTP concentrations ranging from 0 to 10 μM at a concentration of dCTP of 10 μM and 0.3 pH of labeled primer. Under these conditions, the primer is extended by the incorporation of dCTP until it encounters ddCTP incorporation. […] Fluorescence intensity was measured on a SpectraMax3 Microplate Reader (Molecular Devices, LLC).

[4] = THP cleavage of SS linker / 3′ blocking group on extended primer (MALDI-TOF MS); format: physicochemical
Protocol: Tris(hydroxypropyl)phosphine (THP) (1 μL, 1 mM) was added to the azo cleaved extended primer (9 μL, 15 μM) (E8TT+3′-O-t-butyl-SS-dTMP-PEG4-aniline, 6009.44 Da). […] After the spin column-based nucleic acid purification (ZymoPURE Oligo Clean & Concentrator), the product was confirmed by MALDI-TOF MS: 5881.4 Da (calc'd: 5874.9 Da). […]

[5] = Compatibility test: stability of SS linker on sodium dithionite treatment (MALDI-TOF MS); format: physicochemical; details: 25 mM Na2S2O4 in PBS pH 7.4, 30 min at 37° C.
Protocol: Disclosed herein are the results of a compatibility test was performed using 3′-O-SS-dATP-SS-Rox (cal: MW1344.36 Da, observed 1345.61) as model compound. 2 μl of 0.1 mM 3′-O-SS-dATP-SS-Rox was treated with 100 μL of freshly made 25 mM Na2S2O4 (in PBS buffer [pH 7.4]) and the mixture was kept shaking for 30 min at 37° C. Then desalination was carried out with a ZipTip, and the product was subjected to MALDI TOF MS measurement. […] The result proves that the disulfide linker is stable at much higher concentration of sodium dithionite and at longer reaction time than necessary to cleave the Azo linker.
An additional compatibility test was conducted on 3′-SS-dC extended ssDNA. The single base extension experiment was carried out by adding 20 pmol Exon 8 template, 60 pmol primer (M.W. 5144), 2 mM MnCl2 and 2 U Therminator 9 polymerase in 20 μl 1×Pol buffer in each PCR reaction tube which were subject to PCR thermocycles (65° C. for 30″ 45° C. for 30″, 38 cycles). After completion of the incorporation, NaS2O4 solution was added to the reaction tube to a final concentration of 20 mM and incubated at room temperature for 40 min. Then the reaction mixture was treated with a Clean & Concentrator column to purify ssDNA. The resulting oligonucleotide was subject to MALDI-TOF MS measurement. […]

[6] = 25 mM sodium dithionite at 45° C. for 1 minute

- cleavage of azo linker on extended primer [1, 6]: complete cleavage
- efficiency of primer strand extension [2]: ~100%
Compound: ddATP-7-Azo-Biotin

Compound: Nc1ccn([C@H]2CC[C@@H](COP(=O)(O)OP(=O)(O)OP(=O)(O)O)O2)c(=O)n1 [ddCTP]
- IC50 [3]: ~500 nM

- cleavage of azo linker on extended primer [1, 6]: complete cleavage
- efficiency of primer strand extension [2]: ~100%
Compound: ddTTP-5-Azo-Cy5

- cleavage of azo linker on extended primer ([1]; 25 mM sodium dithionite in 1×PBS, 37° C. for 10 min): can be cleaved efficiently
- efficiency of primer strand extension [2]: ~100%
Compound: 3′-O-t-Butyl-SS(DTM)-dATP-PEG4-Azo-Biotin [3′-O-t-butyl-SS-dATP-PEG4-Azo-Biotin]

- cleavage of azo linker on extended primer ([1]; 25 mM sodium dithionite at 37° C. for 20 minutes): complete cleavage
- incorporation rate ([2]; 38 cycles at 65° C. for 30 seconds and 45° C. for 30 seconds, no primer peak observed): 100%
Compound: 3′-O-t-Butyl-SS(DTM)-dTTP-PEG4-Azo-Cy5 [3′-O-t-butyl-SS-dTTP-PEG4-Azo-Cy5]
- removal of 3′ blocking group ([4]; 1 mM THP for 5 minutes at 65° C.): removed the blocking group with high efficiency

- efficiency of primer strand extension [2]: ~100%
Compound: ddGTP-7-SS-Cy5

- cleavage of SS linker on extended primer ([4]; THP): complete cleavage
- efficiency of primer strand extension [2]: ~100%
Compound: ddCTP-5-SS-Biotin

- integrity in the presence of Na2S2O4 [5]: no cleavage or degradation was observed
Compound: 3′-O-SS-dATP-SS-Rox
